Reference: patent US20250235450A1, “COMBINATION THERAPIES COMPRISING APREMILAST AND TYK2 INHIBITORS” (Celgene Corporation, priority 2019, published 2025)
Read-outs that look alike come from different tables or passages of the source.

Experiments:
[1] = test system: anti-CD3/anti-CD28 (Th0) or anti-CD3/anti-CD28, IL-1β, IL-6 and IL-23 (Th17) stimulated whole blood; assay: Ex-vivo TruCulture tube assay: cytokine production in stimulated whole blood; assay type: cell-based, human
Experimental: Whole blood was received through the Celgene Donor program after informed consent and donor deidentification. All volunteers were healthy and were not on any medications for at least 72 hours prior to the blood draw. Blood was collected in sodium heparin tubes. The assay was started within 2 hours of the blood draw.
An ex-vivo stimulation of healthy donor human whole blood was performed under two different stimulation conditions. Condition Th0 was a stimulation with TruCulture® tubes containing anti-CD3/anti-CD28. Condition Th17 was a stimulation with TruCulture® tubes containing anti-CD3/anti-CD28 plus IL-1β, IL-6 and IL-23. Whole blood was separated into 15 milliliter conical tubes and pre-treated with DMSO, apremilast alone, BMS-986165 alone or BMS-986165 combined with apremilast. Final concentrations were 0.2% DMSO, 1 μM for apremilast alone, 1 μM, 0.1 μM, 0.01 μM and 0.001 μM BMS-986165 alone and in combination with 1 μM apremilast. Blood was mixed well and then incubated in a 37° C./5% CO2 incubator for 1 hour.
The anti-CD3/anti-CD28 (200 ng/ml and 330 ng/ml final concentrations respectively) TruCulture® tubes were thawed on the bench top for 30 minutes and then labeled. Plungers were pressed and then broken off. TruCulture® tubes were placed in a rack standing upright such that the plunger side is pointing down in the rack and the tube-cap is pointing up. While blood was incubating with compound Human recombinant IL-6, IL-1β and IL-23 were added to all Th17 tubes in the following concentrations: 120 ng IL-6, 120 ng IL-1b and 150 ng IL-23. One ml of the pre-treated whole blood was placed in each tube, using sterile pyrogen-free pipette tips. The cap was replaced and the contents of the tube were mixed by inverting 3 times. The tubes were immediately placed in a 37° C. heat block and incubated for 42 hours (tube-cap end). After the 42 hours the tubes were removed from the heat block, tops were unscrewed and 250 μl of the supernatant was removed and transferred into three 96-well polypropylene plates. Samples were immediately frozen at −80° C. The supernatants were then thawed at room temperature and tested neat for cytokine production by Luminex Multi-Plex MagPix technology (Millipore) or IL-22 by ELISA (Abcam). The manufacturer's procedures were followed accordingly.
Data processing for the cytokine analysis was done using Milliplex Analyst (Millipore), and raw data was exported to Excel template for the cytokine analysis. Data from the template was plotted using GraphPad Prism 7.0 (GraphPad Software, Inc., La Jolla, CA) and expressed as pg/ml or % of control. Statistical analysis was also performed using One Way Anova and Dunnett's Post Test.
To evaluate the combinatory effect of apremilast and BMS-986165, data from the two independent treatments were analyzed by comparing the combinatory response against the theoretical additive response of the two agents. The expected additive effect of two agents (A and B) was calculated using the fractional product method: (fu)A,B=(fu)A×(fu)B; where fu=fraction unaffected by treatment.

[2] = test system: LPS stimulated PBMCs; assay: Viability of LPS stimulated PBMCs; assay type: cell-based, human; set-up: key: ↑: Induced; —: No change; ↓: Reduced
[3] = Th0, 0.01 μM BMS-986165 (combination: + 1 μM apremilast)
[4] = Th0, 0.1 μM BMS-986165 (combination: + 1 μM apremilast)
[5] = Th17, 0.01 μM BMS-986165 (combination: + 1 μM apremilast)
[6] = Th17, 0.1 μM BMS-986165 (combination: + 1 μM apremilast)

Structure (SMILES): [2H]C([2H])([2H])NC(=O)c1nnc(NC(=O)C2CC2)cc1Nc1cccc(-c2ncn(C)n2)c1OC [BMS-986165, 6-(cyclopropanecarboxamido)-4-((2-methoxy-3-(1-methyl-1H-1,2,4-triazol-3-yl)phenyl)amino)-N-(methyl-d3)pyridazine-3-carboxamide]
- increase of GM-CSF, statistical significance ([1]; 0.1 μM BMS-986165 (Th0 and Th17) and 1 μM (Th17)): significant
- inhibition at 0.01 µM ([1]; Homo sapiens, Th0, 0.01 μM BMS-986165, read-out: inhibition of IL-22): 16%
- inhibition at 0.1 µM ([1]; Homo sapiens, Th0, 0.1 μM BMS-986165, read-out: inhibition of IL-22): 86%
- inhibition at 1 µM ([1]; Homo sapiens, Th0, 1 μM BMS-986165, read-out: inhibition of IL-22): 91%
- inhibition at 0.001 µM ([1]; Homo sapiens, Th17, 0.001 μM BMS-986165 (combination: + 1 μM apremilast), read-out: inhibition of IL-17F): 31%
- inhibition at 0.01 µM ([1]; Homo sapiens, Th17, 0.01 μM BMS-986165 (combination: + 1 μM apremilast), read-out: inhibition of IL-17F): 34%
- inhibition at 0.1 µM ([1]; Homo sapiens, Th17, 0.1 μM BMS-986165 (combination: + 1 μM apremilast), read-out: inhibition of IL-17F): 70%
- inhibition at 1 µM ([1]; Homo sapiens, Th17, 1 μM BMS-986165 (combination: + 1 μM apremilast), read-out: inhibition of IL-17F): 95%
- inhibition at 1 µM ([1]; Homo sapiens, Th17, 1 μM BMS-986165, read-out: inhibition of TNF-α): 68%
- increase in TNF-α expression ([1]; Th0, 0.001 μM BMS-986165): 21%
- increase of GM-CSF ([1]; Th0, 0.001 μM BMS-986165): 19%
- increase in TNF-α expression ([1]; Th0, 0.01 μM BMS-986165): 43%
- increase of GM-CSF ([1]; Th0, 0.01 μM BMS-986165): 36%
- CCL20 % of Control [1, 3]: 82.7 % of Control
- GM-CSF % of Control [1, 3]: 136.3 % of Control
- IFN-γ % of Control [1, 3]: 100.2 % of Control
- IL-1β % of Control [1, 3]: 113.5 % of Control
- IL-2 % of Control [1, 3]: 120.1 % of Control
- IL-4 % of Control [1, 3]: 122.8 % of Control
- IL-5 % of Control [1, 3]: 153.1 % of Control
- IL-6 % of Control [1, 3]: 149.3 % of Control
- IL-10 % of Control [1, 3]: 101.5 % of Control
- IL-13 % of Control [1, 3]: 146.9 % of Control
- IL-17A % of Control [1, 3]: 83.5 % of Control
- IL-17F % of Control [1, 3]: 68.5 % of Control
- IL-21 % of Control [1, 3]: 107.6 % of Control
- IL-22 % of Control [1, 3]: 84.1 % of Control
- IL-23 % of Control [1, 3]: 101.8 % of Control
- TNF-α % of Control [1, 3]: 143.1 % of Control
- increase in TNF-α expression ([1]; Th0, 0.1 μM BMS-986165): 61%
- increase of GM-CSF ([1]; Th0, 0.1 μM BMS-986165): 110%
- CCL20 % of Control [1, 4]: 106.4 % of Control
- GM-CSF % of Control [1, 4]: 210.5 % of Control
- IFN-γ % of Control [1, 4]: 80.9 % of Control
- IL-1β % of Control [1, 4]: 113.2 % of Control
- IL-2 % of Control [1, 4]: 187.4 % of Control
- IL-4 % of Control [1, 4]: 114.7 % of Control
- IL-5 % of Control [1, 4]: 178.6 % of Control
- IL-6 % of Control [1, 4]: 124.0 % of Control
- IL-10 % of Control [1, 4]: 33.8 % of Control
- IL-13 % of Control [1, 4]: 205.9 % of Control
- IL-17A % of Control [1, 4]: 73.0 % of Control
- IL-17F % of Control [1, 4]: 28.3 % of Control
- IL-21 % of Control [1, 4]: 94.5 % of Control
- IL-22 % of Control [1, 4]: 13.4 % of Control
- IL-23 % of Control [1, 4]: 89.9 % of Control
- TNF-α % of Control [1, 4]: 160.7 % of Control
- increase of GM-CSF ([1]; Th0, 1 μM BMS-986165): 31%
- inhibition of TNF-α cytokine expression ([1]; Th0, 1 μM BMS-986165): 66%
- IL-17A levels ([1]; Th0, 1 μM BMS-986165 (combination: + 1 μM apremilast), control 138 pg/mL): 97 pg/mL
- effect on IL-17A cytokine expression ([1]; Th0 and Th17): inhibited
- effect on IL-17F cytokine expression ([1]; Th0 and Th17): inhibited
- effect on IL-22 cytokine expression ([1]; Th0 and Th17): inhibited
- effect on IL-22 cytokine expression, statistical significance ([1]; Th0 and Th17, 0.1 μM and 1 μM BMS-986165): significantly lowered
- inhibition of TNF-α levels, statistical significance ([1]; Th0 and Th17, 1 μM BMS-986165): significant
- effect on IL-17F, statistical significance ([1]; Th0 and Th17, 0.1 and 1 μM BMS-986165): significantly reduced
- effect on IL-22 cytokine expression ([1]; Th17, 0.001 μM BMS-986165): no effect
- increase in TNF-α production ([1]; Th17, 0.01 μM BMS-986165): 19%
- increase of GM-CSF ([1]; Th17, 0.01 μM BMS-986165): 41%
- CCL20 % of Control [1, 5]: 121.7 % of Control
- GM-CSF % of Control [1, 5]: 141.1 % of Control
- IFN-γ % of Control [1, 5]: 114.2 % of Control
- IL-1β % of Control [1, 5]: 94.2 % of Control
- IL-2 % of Control [1, 5]: 128.5 % of Control
- IL-4 % of Control [1, 5]: 126.5 % of Control
- IL-5 % of Control [1, 5]: 144.3 % of Control
- IL-6 % of Control [1, 5]: 96.8 % of Control
- IL-10 % of Control [1, 5]: 78.4 % of Control
- IL-13 % of Control [1, 5]: 158.1 % of Control
- IL-17A % of Control [1, 5]: 97.7 % of Control
- IL-17F % of Control [1, 5]: 73.6 % of Control
- IL-21 % of Control [1, 5]: 91.5 % of Control
- IL-22 % of Control [1, 5]: 83.3 % of Control
- IL-23 % of Control [1, 5]: 93.8 % of Control
- TNF-α % of Control [1, 5]: 118.5 % of Control
- inhibition of IL-22 cytokine expression [1, 5]: 17%
- IL-17A levels ([1]; Th17, 0.01 μM BMS-986165 (combination: + 1 μM apremilast), control 532 pg/mL): 519 pg/mL
- increase in TNF-α levels, statistical significance ([1]; Th17, 0.1 μM BMS-986165): significant
- increase in TNF-α production ([1]; Th17, 0.1 μM BMS-986165): 77%
- increase of GM-CSF ([1]; Th17, 0.1 μM BMS-986165): 139%
- CCL20 % of Control [1, 6]: 157.8 % of Control
- GM-CSF % of Control [1, 6]: 239.3 % of Control
- IFN-γ % of Control [1, 6]: 74.7 % of Control
- IL-1β % of Control [1, 6]: 89.0 % of Control
- IL-2 % of Control [1, 6]: 250.3 % of Control
- IL-4 % of Control [1, 6]: 161.9 % of Control
- IL-5 % of Control [1, 6]: 249.9 % of Control
- IL-6 % of Control [1, 6]: 112.7 % of Control
- IL-10 % of Control [1, 6]: 46.6 % of Control
- IL-13 % of Control [1, 6]: 287.5 % of Control
- IL-17A % of Control [1, 6]: 79.2 % of Control
- IL-17F % of Control [1, 6]: 30.0 % of Control
- IL-21 % of Control [1, 6]: 86.3 % of Control
- IL-22 % of Control [1, 6]: 39.8 % of Control
- IL-23 % of Control [1, 6]: 96.3 % of Control
- TNF-α % of Control [1, 6]: 177.4 % of Control
- inhibition of IL-22 cytokine expression [1, 6]: 60%
- IL-17A levels ([1]; Th17, 0.1 μM BMS-986165 (combination: + 1 μM apremilast), control 532 pg/mL): 428 pg/mL
- increase of GM-CSF ([1]; Th17, 1 μM BMS-986165): 104%
- inhibition of IL-22 cytokine expression ([1]; Th17, 1 μM BMS-986165): 70%
- IL-17A levels ([1]; Th17, 1 μM BMS-986165 (combination: + 1 μM apremilast), control 532 pg/mL): 383 pg/mL
- inhibition of IL-17A expression ([1]; similar under Th0 and Th17, 0.001-1 μM BMS-986165): 10-25%
- effect on GM-CSF production ([1]; whole blood, Th0 and Th17): increased
- effect on TNF-α production ([1]; whole blood, Th0 and Th17): increased
- Viability [2]: —
